Data reported in paper PMC10254170, “Diastereoselective Synthesis of the Borylated D-Galactose Monosaccharide 3-Boronic-3-Deoxy-D-Galactose and Biological Evaluation in Glycosidase Inhibition and in Cancer for Boron Neutron Capture Therapy (BNCT)” (Molecules, 2023).
Read-outs that look alike come from different tables or passages of the source.

Columns and labels:
[1] = tested on: HT29 (colorectal carcinoma); assay: Cancer screening (MTT growth inhibition), HT29; format: cell-based; conditions: Homo sapiens, HT-29, 25 µM of drug, 72 h, n = 3, mean ± SEM, read-out: Percentage (%) cell growth inhibition
Method: (§1) All test agents were prepared as stock solutions (20 mM) in dimethyl sulfoxide (DMSO) and stored at −20 °C. Cell lines used in the study included: HT29 (colorectal carcinoma), U87 and SJ-G2 (glioblastoma), MCF-7 (breast carcinoma), A2780 (ovarian carcinoma), H460 (lung carcinoma), A431 (skin carcinoma), Du145 (prostate carcinoma), BE2-C (neuroblastoma), MiaPaCa-2 (pancreatic carcinoma), SMA560 (spontaneous murine astrocytoma), and ADDP (Cis Res Ovarian), together with one non-tumor-derived normal breast cell line (MCF10A). All cell lines were incubated in a humidified atmosphere with 5 % CO2 at 37 °C. The cancer cell lines were maintained in Dulbecco’s modified Eagle’s medium (DMEM; Sigma, Australia) supplemented with fetal bovine serum (10%), sodium pyruvate (10 mM), penicillin (100 IUmL^−1), streptomycin (100 µg mL^−1), and L-glutamine (2 mM).
(§2) Growth inhibition was determined by plating cells in duplicate in medium (100 µL) at a density of 2500–4000 cells per well in 96-well plates. On day 0 (24 h after plating), when the cells are in logarithmic growth, medium (100 µL) with or without the test agent was added to each well. After 72 h of drug exposure, growth inhibitory effects were evaluated using the (3-(4,5-dimethyltiazol-2-yl)-2,5-diphenyltetrazolium bromide) (MTT) assay and absorbance read at 540 nm. The percentage growth inhibition was calculated at a fixed concentration of 25 µM, based on the difference between the optical density values on day 0 and those at the end of drug exposure. Each data point is the mean ± the standard error of the mean (SEM) calculated from three replicates, which were performed on separate occasions and in separate cell line passages.

U87 (glioblastoma) = assay: Cancer screening (MTT growth inhibition), U87; format: cell-based; conditions: 25 µM of drug, 72 h, n = 3, mean ± SEM, read-out: Percentage (%) cell growth inhibition
Method: as §1, §2

[2] = tested on: MiaPaCa-2 (pancreatic carcinoma); assay: Cancer screening (MTT growth inhibition), MIA-Pa-Ca2; format: cell-based; conditions: Homo sapiens, MIA PaCa-2, 25 µM of drug, 72 h, n = 3, mean ± SEM, read-out: Percentage (%) cell growth inhibition
Method: as §1, §2

[3] = molecular target: T1, Aspergillus niger amyloglucosidase (Aspergillus niger, UniProt P69328); assay: Glycosidase inhibition, A. niger amyloglucosidase; format: biochemical; conditions: at 100 μM
T1 construct: purchased Sigma-Aldrich Co
Description: (§3) Glycosidase modulation studies need to explore selectivity as well as potency. Our drugs and controls are therefore screened against a panel of glycosidases in methanol (Table 1) to identify the glycosidase-related disease area(s), selectivity profile, and potency of biological action for each drug. The presence of organic boron covalently bonded to the drug structure also grants a reduced toxicity profile. Following the glycosidase inhibition range recommendations, an IC50 value >250 μm denotes weak inhibition, 100–249 μm denotes moderate inhibition, 10–99 μm good inhibition, 0.1–9 μm potent inhibition, and <0.1 μm very potent inhibition. […] Our boronated D-galactose 7 represents a novel lead in glycosidase inhibition.
(§4) The glycosidases screened are the following: rice α-glucosidase, yeast α-glucosidase, Bacillus α-glucosidase, rat intestinal maltase α-glucosidase, almond β-glucosidase, bovine liver β-glucosidase, coffee beans α-galactosidase, bovine liver β-galactosidase, Jack bean α-mannosidase, snail β-mannosidase, Penicillium decumbens α-L-rhamnosidase, bovine kidney α-L-fucosidase, Eschierichia coli β-glucuronidase, bovine liver β-glucuronidase, porcine kidney trehalase, Aspergillus niger amyloglucosidase, and bovine kidney N-acetyl-β-glucosaminidase. The disease areas for each glycosidase are summarized in [1].
(§5) The enzymes α-glucosidase (from yeast), β-glucosidases (from almond and bovine liver), α-galactosidase (from coffee beans), β-galactosidase (from bovine liver), α-mannosidase (from Jack bean), β-mannosidase (from snail), α-L-rhamnosidase (from Penicillium decumbens), α-L-fucosidase (from bovine kidney), trehalase (from porcine kidney), β-glucuronidases (from E. coli and bovine liver), amyloglucosidase (from A. niger), para-nitrophenyl glycosides, and various disaccharides were purchased from Sigma-Aldrich Co.
(§6) Brush border membranes were prepared from the rat small intestine according to the method of Kessler et al. and were assayed at pH 6.8 for rat intestinal maltase using maltose. For rat intestinal maltase, porcine kidney trehalase, and A. niger amyloglucosidase activities, the reaction mixture contained 25 mM maltose and the appropriate amount of enzyme, and the incubations were performed for 10–30 min at 37 °C. The reaction was stopped by heating at 100 °C for 3 min. After centrifugation (600 g; 10 min), the resulting reaction mixture was added to the Glucose CII-test Wako (Wako Pure Chemical Ind., Osaka, Japan). The absorbance at 505 nm was measured to determine the amount of the released D-glucose. Other glycosidase activities were determined using an appropriate para-nitrophenyl glycoside as substrate at the optimum pH of each enzyme. The reaction mixture contained 2 mM of the substrate and the appropriate amount of enzyme. The reaction was stopped by the addition of 400 mM Na2CO3. The released para-nitrophenol was measured spectrometrically at 400 nm. All reactions run in methanol.

E. coli β-glucuronidase = molecular target: T2, E. coli β-glucuronidase (Escherichia coli, UniProt P05804); assay: Glycosidase inhibition, E. coli β-glucuronidase; format: biochemical; conditions: at 100 μM
T2 construct: purchased Sigma-Aldrich Co
Description: as §3, §4, §5, §6

[4] = tested on: bovine liver β-glucosidase; assay: Glycosidase inhibition, bovine liver β-glucosidase; format: biochemical; conditions: at 100 μM; for inhibition %: in methanol
Description: as §3, §4, §5, §6

almond β-glucosidase = assay: Glycosidase inhibition, almond β-glucosidase; format: biochemical; conditions: at 100 μM; for inhibition %: in methanol
Description: as §3, §4, §5, §6

SJ-G2 (glioblastoma) = assay: Cancer screening (MTT growth inhibition), SJ-G2; format: cell-based; conditions: SJ-G2, 25 µM of drug, 72 h, n = 3, mean ± SEM, read-out: Percentage (%) cell growth inhibition
Method: as §1, §2

porcine kidney trehalase = molecular target: T3, porcine kidney trehalase (Sus scrofa, UniProt I3LIR5); assay: Glycosidase inhibition, porcine kidney trehalase; format: biochemical; conditions: at 100 μM
T3 construct: purchased Sigma-Aldrich Co; host or cells: porcine kidney
T3 sequence (I3LIR5 24-583): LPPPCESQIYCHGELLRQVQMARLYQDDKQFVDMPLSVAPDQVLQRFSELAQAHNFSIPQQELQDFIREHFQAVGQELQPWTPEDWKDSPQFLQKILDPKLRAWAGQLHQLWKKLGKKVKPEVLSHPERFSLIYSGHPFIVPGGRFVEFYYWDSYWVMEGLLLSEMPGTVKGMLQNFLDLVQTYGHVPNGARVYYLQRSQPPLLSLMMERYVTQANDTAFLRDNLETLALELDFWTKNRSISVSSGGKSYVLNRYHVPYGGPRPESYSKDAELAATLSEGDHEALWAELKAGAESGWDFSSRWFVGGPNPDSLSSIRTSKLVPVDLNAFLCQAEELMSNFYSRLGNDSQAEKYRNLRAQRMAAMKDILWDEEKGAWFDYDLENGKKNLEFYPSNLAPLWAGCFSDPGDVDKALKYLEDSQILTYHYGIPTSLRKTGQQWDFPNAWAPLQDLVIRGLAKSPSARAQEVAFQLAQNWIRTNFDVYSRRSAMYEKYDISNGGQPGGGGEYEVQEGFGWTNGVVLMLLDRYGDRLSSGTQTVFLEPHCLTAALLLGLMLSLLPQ
Description: as §3, §4, §5, §6

snail β-mannosidase = assay: Glycosidase inhibition, snail β-mannosidase; format: biochemical; conditions: at 100 μM; for inhibition %: in methanol
Description: as §3, §4, §5, §6

[5] = in methanol, read-out: inhibition %

T2 sequence (P05804 whole entry): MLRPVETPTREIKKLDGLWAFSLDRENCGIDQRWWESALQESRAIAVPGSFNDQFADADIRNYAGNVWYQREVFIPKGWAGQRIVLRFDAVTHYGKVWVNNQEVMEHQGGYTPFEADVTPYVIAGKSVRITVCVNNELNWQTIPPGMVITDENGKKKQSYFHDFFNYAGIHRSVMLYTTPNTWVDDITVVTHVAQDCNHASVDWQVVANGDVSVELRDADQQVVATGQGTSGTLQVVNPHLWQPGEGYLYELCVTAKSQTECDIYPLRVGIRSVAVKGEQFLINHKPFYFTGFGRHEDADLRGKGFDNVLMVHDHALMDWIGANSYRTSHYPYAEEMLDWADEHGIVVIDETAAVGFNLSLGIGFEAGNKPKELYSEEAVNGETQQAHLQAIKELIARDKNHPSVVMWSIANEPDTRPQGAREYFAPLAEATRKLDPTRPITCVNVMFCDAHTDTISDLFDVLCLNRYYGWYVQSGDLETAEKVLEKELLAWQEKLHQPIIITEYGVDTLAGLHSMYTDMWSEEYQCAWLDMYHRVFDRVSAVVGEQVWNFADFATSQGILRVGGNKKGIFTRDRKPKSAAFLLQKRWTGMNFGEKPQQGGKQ
T1 sequence (P69328 25-640): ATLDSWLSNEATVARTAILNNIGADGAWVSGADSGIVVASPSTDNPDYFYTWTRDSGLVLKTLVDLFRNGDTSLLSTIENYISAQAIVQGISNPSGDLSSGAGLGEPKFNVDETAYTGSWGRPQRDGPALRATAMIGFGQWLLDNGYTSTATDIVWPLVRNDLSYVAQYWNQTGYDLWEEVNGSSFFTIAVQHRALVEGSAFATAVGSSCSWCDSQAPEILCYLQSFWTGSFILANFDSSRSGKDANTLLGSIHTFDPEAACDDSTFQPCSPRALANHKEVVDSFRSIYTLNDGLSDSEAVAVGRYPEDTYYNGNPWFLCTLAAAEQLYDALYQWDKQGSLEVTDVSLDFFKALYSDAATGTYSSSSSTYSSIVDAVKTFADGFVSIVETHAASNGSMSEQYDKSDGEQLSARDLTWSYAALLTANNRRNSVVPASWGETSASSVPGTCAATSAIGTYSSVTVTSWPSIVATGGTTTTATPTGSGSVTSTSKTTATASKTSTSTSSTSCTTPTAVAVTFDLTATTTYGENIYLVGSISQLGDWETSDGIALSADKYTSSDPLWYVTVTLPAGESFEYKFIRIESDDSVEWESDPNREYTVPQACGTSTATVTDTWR

SMILES | inhibition at 25 µM [1] | inhibition at 25 µM (U87 (glioblastoma)) | inhibition at 25 µM [2] | inhibition at 100 µM [3, 5] | inhibition at 100 µM ([3]; read-out: NI: No inhibition) | inhibition at 100 µM (E. coli β-glucuronidase; [5]) | inhibition at 100 µM (E. coli β-glucuronidase; read-out: NI: No inhibition) | NI: No inhibition [4] | inhibition % [4] | NI: No inhibition (almond β-glucosidase) | inhibition % (almond β-glucosidase) | inhibition at 25 µM (SJ-G2 (glioblastoma)) | inhibition at 100 µM (porcine kidney trehalase; [5]) | inhibition at 100 µM (porcine kidney trehalase; read-out: NI: No inhibition) | NI: No inhibition (snail β-mannosidase) | inhibition % (snail β-mannosidase)
N[C@@H](Cc1ccc(B(O)O)cc1)C(=O)O [BPA, 4-borono-L-phenylalanine] | 14% | < 0% | 3 ± 3% | 0% | < 50% | 0.5% | < 50% | NI (No inhibition (less than 50% inhibition at 100 μM)) | 0% | NI (No inhibition (less than 50% inhibition at 100 μM)) | 0% | 5 ± 8% | 0% | < 50% | NI (No inhibition (less than 50% inhibition at 100 μM)) | 2.1%
CC1(C)OCC(C2OC3OC(C)(C)OC3C2[B-]23OCC[NH+]2CCO3)O1 [Compound 6, 3-Deoxy-3-Boronodiethanolamine-1,2:5,6-Di-O-isopropylidene-α-D-galactofuranose] | 10 ± 5% | 8 ± 4% | 3 ± 1% | 0% | < 50% | 3.5% | < 50% | NI (No inhibition (less than 50% inhibition at 100 μM)) | 12.2% | NI (No inhibition (less than 50% inhibition at 100 μM)) | 0.3% | < 0% | 0% | < 50% | NI (No inhibition (less than 50% inhibition at 100 μM)) | 0%
